One may read the AC50 as the concentration giving half of the maximal activity seen.

Results on 95 compounds are retold here after PubChem BioAssay AID493191 (Broad Institute, 2011).

For this assay, the system named is MALME3 melanoma viability, CellTiter-Glo luminescence, 24 h. The assay is described as follows: MALME3 melanoma cell viability loss, dose response, orthogonal assay for MITF inhibitor project, CellTiter-Glo, cherry-picked (AID 493191). Background: ATP-based viability assays read luminescence as a measure of living cells.
On to `Cc1cc(C(C)(C)C)cc(C)c1Cn1c2[n+](c3ccc(C(F)(F)F)cc31)CCCCC2`, for which the AC50 was 24.6 µM.

For `CC[n+]1c(-c2ccccc2)c2cc(N)ccc2c2ccc(N)cc21`, the AC50 was 23.3 µM.

On to `Cc1ccc(Cn2c(=N)n(CC(=O)c3ccc([N+](=O)[O-])cc3)c3ccccc32)cc1`, for which the concentration at half-maximal activity (AC50) is 18.6 µM.

For `COc1ccc(C)c2sc(N(CCN(C)C)C(=O)/C=C/c3cccs3)nc12`, the AC50 is 25.1 µM.

In the case of `CCOCCCNC(=O)/C(C#N)=C/c1ccc([N+](=O)[O-])o1`, the AC50 was 12.6 µM.

Consider `CN(C)CCNC(=O)/C(=C/c1ccc(-c2ccc(Cl)cc2Cl)o1)NC(=O)c1ccccc1`, for which the AC50 was 18 µM.

As to `CCOC(=O)c1ccc(NC2=CC(=O)C(=O)c3ccccc32)cc1`, the half-maximal activity concentration (AC50) is 5.16 µM.

Take `COc1cccc(C(=O)Oc2c(CN3CCOCC3)cc(Cl)c3cccnc23)c1`: the AC50 was 30.7 µM.

`CCS(=O)(=O)c1ccc(N=Nc2ccc(O)c3ncccc23)c(OC)c1`: the AC50 was 5.85 µM.

Regarding `CC1CC2(C)Oc3ccccc3CC2C(C)C1CNCCCN(C)C` (stereo not given), the AC50 is 15.9 µM.

On to `N#CCc1ccc(NC(=O)/C=C/c2ccc([N+](=O)[O-])o2)cc1`, for which the half-maximal activity concentration (AC50) was 10.4 µM.

With `COc1ccc2[nH]cc(C(=O)CCl)c2c1`, the AC50 is 15.1 µM.

Take `CC(=O)Nc1ccc(S(=O)(=O)NC2=C(N3CCN(C)CC3)C(=O)c3ccccc3C2=O)cc1`: the AC50 is 8.92 µM.

On to `COc1ccc(C(=O)/C=C/C(=O)N(CC(=O)NC2CCCCC2)Cc2ccccc2OC)c(O)c1`, for which the concentration at half-maximal activity (AC50) is 4.63 µM.

On to `CC1(C)CC(NC(=O)c2ccc(Cl)c(S(=O)(=O)N(Cc3ccccc3)c3ccccc3)c2)CC(C)(C)N1`, for which the AC50 is 22.7 µM.

With `O=C(CCl)Nc1cccc(-c2cnc3ccccc3n2)c1`, the concentration at half-maximal activity (AC50) was 15.2 µM.

In the case of `Cc1ccc(C(C)C)c(OCc2nn(CC(=O)c3ccc(OC(F)F)cc3)c3[n+]2CCCCC3)c1`, the AC50 is 24.2 µM.

With `O=C(CCl)N1CCN(S(=O)(=O)c2ccc3c(c2)CCC3)CC1`, the AC50 was 25.5 µM.

`Cn1c(SCC(=O)N/N=C/c2ccc([N+](=O)[O-])s2)nnc1-c1ccccc1`: the AC50 is 14.7 µM.

Consider `Cc1ccc(C(=O)N/C(=C\c2ccc(-c3ccc(Br)cc3)o2)C(=O)NCCCN(C)C)cc1`, for which the AC50 was 14.2 µM.

As to `COc1ccc(C(=O)/C=C/C(=O)N(CC(=O)NC2CCCCC2)Cc2ccc(F)cc2)c(O)c1`, the AC50 was 7.85 µM.

On to `O=C1c2ccccc2C(=O)c2c1ncn2-c1ccccc1`, for which the AC50 is 19.2 µM.

As for `CCOC(=O)N1C(=O)[C@@](CC)(c2ccccc2)N1C(=O)OCC`, the AC50 is 26.2 µM.

For `Oc1ccc(CNc2ccccc2F)c2cccnc12`, the AC50 is 28.2 µM.

Turning to `Cc1ccc(NC(=O)c2cc(N3C(=O)C=CC3=O)ccc2N2CCOCC2)cc1Cl`, the AC50 is 23.5 µM.

With `Cc1ccccc1C(=O)N1CCN(c2ccc(NC(=O)c3ccc([N+](=O)[O-])o3)cc2)CC1`, the AC50 is 9.64 µM.

On to `Cc1ccc(Oc2c(C(N)=O)cc([N+](=O)[O-])cc2[N+](=O)[O-])cc1`, for which the AC50 is 25.9 µM.

`CCOC(=O)c1c(C)oc2c(F)c(F)c(F)c(F)c2c1=O`: the AC50 is 19.4 µM.

In the case of `O=c1c2ccccc2nc(/C=C/c2ccc([N+](=O)[O-])o2)n1-c1ccc(O)cc1`, the AC50 was 14.5 µM.

As for `CCCC(=O)N1CCN(c2ccc(NC(=O)c3ccc([N+](=O)[O-])o3)cc2Cl)CC1`, the AC50 was 14.4 µM.

On to `O=C1Nc2ccc(Br)cc2/C1=C/C(=O)c1ccc2c(c1)OCO2`, for which the AC50 was 32 µM.

Regarding `Cc1cccc(NC(=O)CNC(=O)Cn2ncc(Cl)c(Cl)c2=O)c1C`, the AC50 is 14.1 µM.

In the case of `CCCCn1c(=N)n(CC(=O)c2ccc(Br)s2)c2ccccc21`, the AC50 is 33.2 µM.

For the compound `c1ccc2cc3c(NCCN4CCOCC4)ccnc3cc2c1`, the AC50 is 4.49 µM.

Take `CN(C)CCCNC(=O)/C(=C\c1ccc(-c2ccc(Br)cc2)o1)NC(=O)c1ccccc1`: the AC50 is 16.3 µM.

Regarding `CCOc1ccc(-c2ccc(SC)nn2)cc1`, the AC50 was 26.5 µM.

With `Cc1nc2ccccn2c1C(=O)N/N=C/c1ccc([N+](=O)[O-])o1`, the AC50 was 34 µM.

Consider `O=C(COc1ccc(Cl)cc1Cl)Nc1ccccn1`, for which the AC50 was 14.5 µM.

As for `CCC(=O)OCCNc1cc(Sc2nccn2C)c2nonc2c1[N+](=O)[O-]`, the AC50 is 27.4 µM.

Consider `O=C1/C(=C/c2ccccc2[N+](=O)[O-])COc2ccccc21`, for which the AC50 is 25.3 µM.

Regarding `O=C(N/N=C\c1ccc([N+](=O)[O-])s1)c1cncc(Br)c1`, the AC50 was 20.2 µM.

Turning to `Cc1ccc(-n2cc(CNCCCn3ccnc3C)c(-c3ccc(F)cc3)n2)cc1`, the half-maximal activity concentration (AC50) is 15.8 µM.

In the case of `CC1CCCC(NCC(O)COC(c2ccc(F)cc2)c2ccc(F)cc2)C1C` (stereo not given), the AC50 was 20.5 µM.

With `O=C(Nc1ccccc1N1CCOCC1)c1ccc([N+](=O)[O-])s1`, the AC50 is 30.9 µM.

For `CC(=O)Cn1ncc(Br)c(Br)c1=O`, the half-maximal activity concentration (AC50) is 14.6 µM.

For the compound `COc1ccccc1NC(=O)c1nc(S(=O)(=O)Cc2ccccc2)ncc1Cl`, the AC50 was 6.97 µM.

For `Cn1nnnc1Sc1ncnc2scc(-c3ccc(C#N)cc3)c12`, the AC50 is 28.5 µM.

With `Oc1c(CN2CCCCC2)cc(COCc2ccccc2)c2cccnc12`, the AC50 is 10.4 µM.

For the compound `C/C(=N/NC(=O)C(O)(c1ccccc1)c1ccccc1)c1ccc([N+](=O)[O-])o1`, the AC50 is 34.1 µM.

In the case of `CCN1CCN(C2=C(NS(=O)(=O)c3ccc(Br)cc3)C(=O)c3ccccc3C2=O)CC1`, the AC50 is 20.1 µM.

As for `CCn1c(/C=C/Nc2ccccc2)[n+](CC)c2cc(Cl)c(Cl)cc21`, the AC50 was 29.6 µM.

`O=C1C(Cl)=C(N2CCN(c3ccccc3[N+](=O)[O-])CC2)C(=O)c2ccccc21`: the AC50 is 18.2 µM.

For the compound `CCOC(=O)c1cc([N+](=O)[O-])c([N+](=O)[O-])cc1NC(C)=O`, the AC50 is 29.9 µM.

`N#C/C(=C(/O)c1ccc([N+](=O)[O-])o1)c1nc2ccccc2[nH]1`: the AC50 was 9.62 µM.

Regarding `Cc1cc(C)c2c(N)c3cccc(C)c3nc2n1`, the AC50 was 27.9 µM.

In the case of `COc1ccc2nc(N3CCN(C(=O)c4ccc([N+](=O)[O-])o4)CC3)sc2c1`, the AC50 is 21.7 µM.

`O=C1C(Cl)=C(Nc2ccccc2)C(=O)c2ccccc21`: the AC50 was 5.66 µM.

Consider `CCCCN1C=CC(=C2C(=O)c3ccccc3C2=O)C=C1`, for which the AC50 was 27.3 µM.

Turning to `Cc1cc(-n2c(SCC(=O)NCCC3=CCCCC3)nc3n[nH]c(C)c3c2=N)ccc1Cl`, the AC50 was 28.6 µM.

As for `CS(=O)(=O)N1CCN(c2ccc(NC(=O)c3ccc([N+](=O)[O-])o3)cc2)CC1`, the AC50 is 16.7 µM.

Regarding `CCCOCc1ccc(O)c2ncccc12`, the AC50 is 32.2 µM.

`CCc1ccccc1NC(=O)CN(C)C(=O)Cn1ncc(Cl)c(Cl)c1=O`: the AC50 is 11.8 µM.

On to `O=C(Nc1ccc(N2CCN(C(=O)c3ccc(Cl)cc3)CC2)cc1)c1ccc([N+](=O)[O-])o1`, for which the AC50 was 16.7 µM.

With `CCN(CC)CCn1nc2c3c(cccc3c1=O)-c1ccccc1-2`, the AC50 is 28.4 µM.

Consider `COc1ccc(S(=O)(=O)N(C(C)=O)c2ccc(OC(C)=O)c3ccccc23)cc1[N+](=O)[O-]`, for which the AC50 is 18.1 µM.

As for `Cc1cc(Sc2ncnc(N)c2[N+](=O)[O-])ncn1`, the AC50 was 34 µM.

On to `CNC(=O)COC(=O)c1ccccc1C(=O)c1ccc(Cl)c([N+](=O)[O-])c1`, for which the AC50 is 23.8 µM.

With `Cc1ccc(NC(=O)c2ccc([N+](=O)[O-])o2)cc1S(=O)(=O)N1CCOCC1`, the AC50 is 26.1 µM.

With `CC(=O)c1c(C)oc2c1C(=O)c1ccccc1C2=O`, the AC50 was 21.2 µM.

Take `O=C1c2cc([N+](=O)[O-])cc3cc([N+](=O)[O-])cc(c23)C(=O)N1c1ccccn1`: the AC50 was 21.9 µM.

`O=[N+]([O-])c1ccc(/C=N/n2cnc3ccccc32)s1`: the AC50 is 8.99 µM.

Take `CCOC(=O)CSC1=NC(=O)/C(=C\c2ccc(Cl)cc2)S1`: the AC50 is 16.2 µM.

`Nc1c(N(CCC2=CCCCC2)C(=O)COc2ccc(F)cc2)c(=O)[nH]c(=O)n1Cc1ccccc1`: the AC50 was 15.8 µM.

For `O=C(Nc1ccc(F)cc1)c1nc(S(=O)(=O)Cc2ccccc2)ncc1Cl`, the AC50 was 12 µM.

`O=C(Nc1ccc(S(=O)(=O)NC2=NCCCCC2)cc1)c1ccc([N+](=O)[O-])s1`: the AC50 is 18.4 µM.

For `CS(=O)(=O)c1ncc(Cl)c(C(=O)Nc2ccc3ccccc3c2)n1`, the AC50 is 15.2 µM.

Consider `O=C1CN(C(=O)Cn2ncc(Cl)c(Cl)c2=O)c2ccccc2N1`, for which the AC50 is 15.4 µM.

Consider `O=C(Cn1ncc(Cl)c(Cl)c1=O)N1CCOCC1`, for which the AC50 was 20.6 µM.

As for `COC1=C(Nc2ccccc2)C(=O)c2ccccc2C1=O`, the AC50 was 22 µM.

As to `Cc1ccc(NC2=C(Cl)C(=O)c3ccccc3C2=O)cc1`, the AC50 was 6.96 µM.

`O=C(N/N=C/c1ccc([N+](=O)[O-])s1)C(O)c1ccccc1` (stereo not given): the AC50 was 22.7 µM.

With `Cc1c(NC(=O)c2ccc([N+](=O)[O-])o2)cccc1-c1nc2ncccc2o1`, the AC50 is 15.4 µM.

Take `O=C(COC(=O)c1ccccc1C(=O)c1ccc(Cl)c([N+](=O)[O-])c1)NC1CC1`: the AC50 is 15.6 µM.

In the case of `CC(C)C1CC(CCNCc2ccc(N(C)C)cc2)(c2ccccc2)CCO1` (stereo not given), the concentration at half-maximal activity (AC50) was 29.5 µM.

Take `COc1cc(NC(=O)c2[nH]cnc2C(N)=O)cc(C(=O)Nc2cccc(C(F)(F)F)c2)c1`: the AC50 is 11.2 µM.

On to `CC1CCC(C(C)C)C(OC(=O)Cn2c(-c3ccc(Cl)cc3)[n+](C)c3ccccc32)C1` (stereo not given), for which the AC50 was 11.7 µM.

As for `Cc1cc(NC(=O)c2cncc(Br)c2)ccc1NC(=O)c1cc2ccccc2o1`, the AC50 was 17 µM.

In the case of `COC(=O)C1=C(C)N(Cc2ccccc2)C(=NCC(C)C)N[C@H]1c1cccc(C(F)(F)F)c1`, the AC50 was 16.9 µM.

Take `O=C(N/N=C/c1ccc([N+](=O)[O-])o1)c1cc2ccccc2o1`: the AC50 is 10.5 µM.

Consider `CN1CCN(C2=C(NS(=O)(=O)c3ccccc3)C(=O)c3ccccc3C2=O)CC1`, for which the AC50 is 11.2 µM.

Regarding `Cc1ccc(NC(=O)CCl)cc1S(=O)(=O)N1CCCCCC1`, the AC50 is 18.1 µM.

For the compound `O=C(N/N=C/c1ccc([N+](=O)[O-])s1)c1cccc(Br)c1`, the AC50 was 29.9 µM.

Regarding `Cc1ccccc1OCC(=O)N/N=C/c1ccc([N+](=O)[O-])o1`, the AC50 is 26.3 µM.

In the case of `O=C(N/N=C/c1ccc([N+](=O)[O-])o1)c1ccccc1-n1cccc1`, the AC50 was 32.1 µM.

For the compound `COc1ccc(NC(=O)CCC(=O)N/N=C/c2ccc([N+](=O)[O-])s2)cc1`, the AC50 was 28.2 µM.
